Assay results published in patent US10750762B2, “Bio-based N-acetyl-L-methionine and use thereof” (CJ Cheiljedang Corporation, priority 2015, dated 2020).
Like-named read-outs stand apart in the source and are kept apart here. Each block holds one compound with its values, some of them ahead of it.

Key:
[1] = system: extracts of bovine small intestine; format: in vitro ADME; details: Korean native cattle, 24 h
Protocol: The small intestine (40 m) of Korean native cattle (record number: KOR005078680400), slaughtered in Bucheon livestock products market of National Agricultural Cooperative Federation, was purchased. After slicing the small intestine to around 1 m, 20 mM sodium phosphate buffer (pH 7.4, 5 mL) was added in the sliced small intestine. Thereafter, while holding each ends of the small intestine, the small intestine was repeatedly waggled to help most of enzymes in the small intestine to be dissolved by the sodium phosphate buffer. […]
(§1) In order to remove protein in the sample which the reaction was over, perchloric acid (0.5%) was added therein and diluted 10-fold. Thereafter, the N-acetyl-L-methionine and L-methionine existing in the supernatant, which is separated by centrifugation at 14,000 for 10 minutes, were quantitatively analyzed (HPLC). Conversion rate (%) was calculated by comparing the molar concentrations (mM) between the N-acetyl-L-methionine prior to the reaction and the L-methionine after the reaction, in terms of the percentage (%) (the molecular weight of the N-acetyl-L-methionine: […]; and the molecular weight of the L-methionine: […]). […]

extracts of bovine liver = assay: Digestive degradation by extracts of liver; format: in vitro ADME; details: Korean native cattle, 24 h
Protocol: The liver of Korean native cattle (record number: KOR005078680400), slaughtered in Bucheon livestock products market of National Agricultural Cooperative Federation, was purchased. After mixing liver tissues (0.125 g) with 20 mM sodium phosphate buffer (pH 7.4, 1 mL), glass beads (Sigma G1145) were filled in about 1/10 of a tube (2 mL). The cell tissues were disrupted using a beadbeater (MP™ FastPrep) for three times with each 20 seconds, and the resultant was centrifuged at 4° C. at 14,000 rpm for 10 minutes to obtain supernatants.
To confirmed the enzymatic activity of the extracts obtained from small intestine and liver, acylase I (sigma A3010) extracted from pig kidney was used. […]
as §1

ruminal microflora = details: male, Holstein, cattle, 2 mg/mL
Protocol: One Holstein steer (weighing around 630 kg to 650 kg) equipped with ruminal cannula was provided for an experimental purpose, and the Holstein steer was bred by feeding the commercial feed (Milkgen™, CJ CheilJedang) and rice straws twice a day (7:30 a.m., 3:[…].).
The collection of ruminal fluid was carried out at 10 a.m. on the experimental day. Contents in the rumen were removed through a cannula, and gastric fluid was extracted with gauze by squeezing the same. Thereafter, the extracted gastric fluid was placed in a vacuum flask, and bubbled with CO2. The vacuum flak containing the gastric fluid was then carried to a laboratory while blocking a penetration of oxygen. It took less than an hour to carry the ruminal fluid to the laboratory.
The ruminal fluid carried to the laboratory was filtered with two layers of gauze, and then it was used as anaerobic culture medium by mixing the same with a biomimetic solution of McDougall's buffer (Troelsen and Donna, 1966), which is commonly used in the in vitro rumen bypass test, in a ratio of 1:3.
A feed used in the experiment was the commercial feed (Milkgen™), a feed substantially used for cattle breeding, and the feed was also used as a basal diet. Further, the experimental samples were prepared by mixing the basal diet with a test material. The test material used in this experiment was N-acetyl-L-methionine, and this was used as an experimental group 1. The experimental group 1 was compared with the control group 1 composed of only the basal diet without the test material, and also compared with the control group 2 composed of the test material, L-methionine. The culture was carried out with three replications for each experimental group.
The basal diet and test material were mixed in a ratio of 4:1 (basic diet (0.4 g), test material (0.1 g); but only 0.5 g of basic diet in control group 1). The culture initiated when the mixed test material (0.5 g) was added in a culture bottle (125 mL), and then mixed it with the prepared anaerobic culture medium (50 mL), and placed in 40° C. incubator upon sealing of the same.
O2 free CO2 was sprayed during the entire process including dilution of the ruminal fluid until the initiation of the culture, so that the ruminal fluid was not exposed to oxygen. Therefore, the anaerobic condition was maintained.
The culture was finally carried out for 48 hours, and sampling of the culture medium was carried out a total of four times (0 h, 24 h, 36 h, 48 h) upon the initiation of the culture. At each sampling, the sample placed in the 40° C. incubator was moved from the incubator and opened its lid. Thereafter, a supernatant was obtained by centrifuging the culture medium at 4000 rpm for 10 minutes, and then the amount of the test material present in the supernatant was measured.
The bypass rate (%) is represented as a residual amount (%) at time-points of 24 hours, 36 hours, and 48 hours, based on the amount of a test material at the time-point of 0 hour (100%).

[2] = Milk production and composition on feeding N-acetyl-L-methionine; format: in vivo, dairy cows
Protocol: Based on the in vitro evaluation, the N-acetyl-L-methionine, for which high digestive degradation rate in the small intestine and bypass rate in the rumen had been observed, was subjected to verify its efficiency through a substantial evaluation with dairy cows. In order for this, the cows were divided into two separated groups, and the change in milk composition depending on presence or absence of the N-acetyl-L-methionine was analyzed during the evaluation. For this, eight dairy cows were divided into two groups so that each group consists of four cows, respectively. Additionally, the N-acetyl-L-methionine was added to the feed composition (Table 12) which are fed by the four cows in one group (30 g of N-acetyl-L-methionine by each cow per a day), and it was carried out for 84 days. • Group 1: Non-addition of N-acetyl-L-methionine • Group 2: Addition of N-acetyl-L-methionine

[3] = Weight gain effect on feeding N-acetyl-L-methionine; format: in vivo, beef steers
Text: The weight gain effect of beef steers was verified through feeding N-acetyl-L-methionine. For the verification, 24 beef steers were divided into two groups so that each group consisted of 12 beef steers. […] In the group with the addition of N-acetyl-L-methionine, each beef steer was fed with the N-acetyl-L-methionine (30 g) per a day.

[4] = 30 g per cow per day in feed, 84 days
[5] = 30 g per steer per day, 90 days

L-methionine (mM) after the reaction [1]: 5.82 mM | L-methionine (mM) after the reaction (extracts of bovine liver): 6.36 mM
SMILES: CSCCC(NC(C)=O)C(=O)O (racemic) [N-acetyl-D,L-methionine, reference compound]

Rate of rumen bypass (%), Average (ruminal microflora; 0 h): 100% | Rate of rumen bypass (%), replicate 1 (ruminal microflora; 0 h): 100% | Rate of rumen bypass (%), replicate 2 (ruminal microflora; 0 h): 100% | Rate of rumen bypass (%), replicate 3 (ruminal microflora; 0 h): 100% | Rate of rumen bypass (%), Average (ruminal microflora; 24 h): 58.8% | Rate of rumen bypass (%), replicate 1 (ruminal microflora; 24 h): 51.2% | Rate of rumen bypass (%), replicate 2 (ruminal microflora; 24 h): 62.6% | Rate of rumen bypass (%), replicate 3 (ruminal microflora; 24 h): 62.7% | Rate of rumen bypass (%), Average (ruminal microflora; 36 h): 36.0% | Rate of rumen bypass (%), replicate 1 (ruminal microflora; 36 h): 29.4% | Rate of rumen bypass (%), replicate 2 (ruminal microflora; 36 h): 42.3% | Rate of rumen bypass (%), replicate 3 (ruminal microflora; 36 h): 36.2% | Rate of rumen bypass (%), Average (ruminal microflora; 48 h): 1.5% | Rate of rumen bypass (%), replicate 1 (ruminal microflora; 48 h): 1.9% | Rate of rumen bypass (%), replicate 2 (ruminal microflora; 48 h): 1.5% | Rate of rumen bypass (%), replicate 3 (ruminal microflora; 48 h): 0.9%
SMILES: CSCC[C@H](N)C(=O)O [L-methionine]

Rate of rumen bypass (%), Average (ruminal microflora; 0 h): 100% | Rate of rumen bypass (%), replicate 1 (ruminal microflora; 0 h): 100% | Rate of rumen bypass (%), replicate 2 (ruminal microflora; 0 h): 100% | Rate of rumen bypass (%), replicate 3 (ruminal microflora; 0 h): 100% | Rate of rumen bypass (%), Average (ruminal microflora; 24 h): 89.1% | Rate of rumen bypass (%), replicate 1 (ruminal microflora; 24 h): 87.5% | Rate of rumen bypass (%), replicate 2 (ruminal microflora; 24 h): 90.5% | Rate of rumen bypass (%), replicate 3 (ruminal microflora; 24 h): 89.4% | Rate of rumen bypass (%), Average (ruminal microflora; 36 h): 76.2% | Rate of rumen bypass (%), replicate 1 (ruminal microflora; 36 h): 72.5% | Rate of rumen bypass (%), replicate 2 (ruminal microflora; 36 h): 80.1% | Rate of rumen bypass (%), replicate 3 (ruminal microflora; 36 h): 76.0% | Rate of rumen bypass (%), Average (ruminal microflora; 48 h): 55.4% | Rate of rumen bypass (%), replicate 1 (ruminal microflora; 48 h): 52.6% | Rate of rumen bypass (%), replicate 2 (ruminal microflora; 48 h): 57.2% | Rate of rumen bypass (%), replicate 3 (ruminal microflora; 48 h): 56.5% | L-methionine (mM) after the reaction [1]: 10.9 mM
SMILES: CSCC[C@H](NC(C)=O)C(=O)O [N-acetyl-L-methionine]
Amount of production, 3.5% FCM (Fat-corrected milk) [2, 4]: 43.4 kg/day | Amount of production, ECM (Energy-corrected milk) [2, 4]: 42.9 kg/day | Feed efficiency, 3.5% FCM yield/DMI [2, 4]: 1.72 | Feed efficiency, ECM yield/DMI [2, 4]: 1.70 | Feed efficiency, Milk production/Feed intake (Milk yield/DMI) [2, 4]: 1.66 | Production of milk ingredients, Milk fat [2, 4]: 1.56 kg/day | Production of milk ingredients, Milk protein [2, 4]: 1.18 kg/day | Rate of milk ingredients, Milk fat [2, 4]: 3.70% | Rate of milk ingredients, Milk protein [2, 4]: 2.83% | 3.5% FCM production, rate of increase (%) ([2]; vs non-addition group): 7.4% | ECM production, rate of increase (%) ([2]; vs non-addition group): 6.7% | Feed efficiency 3.5% FCM yield/DMI, rate of increase (%) ([2]; vs non-addition group): 9.6% | Feed efficiency ECM yield/DMI, rate of increase (%) ([2]; vs non-addition group): 8.3% | Feed efficiency Milk yield/DMI, rate of increase (%) ([2]; vs non-addition group): 3.1% | Production of milk ingredients, Milk fat, rate of increase (%) ([2]; vs non-addition group): 12.2% | Production of milk ingredients, Milk protein, rate of increase (%) ([2]; vs non-addition group): 3.5% | Rate of milk ingredients, Milk fat, rate of increase (%) ([2]; vs non-addition group): 10.8% | Rate of milk ingredients, Milk protein, rate of increase (%) ([2]; vs non-addition group): 1.8% | Average daily weight gain [3, 5]: 1.48 kg/day | Weight of beef steer, 3 months after feeding [3, 5]: 382.1 kg | additional weight gain ([3]; in comparison with one without the N-acetyl-L-methionine, 90 days): 16.5 kg | Weight gain, rate of increase (%) ([3]; vs non-addition group): 14.2%
